# According to patent publication US20240391940A1, “FUSED RING-CONTAINING COMPOUND, APPLICATION THEREOF, AND COMPOSITION CONTAINING SAME” (GenEros Biopharma Ltd., priority 2020, published 2024):
# Tests used:
# [1] = PK profile in SD rats (i.v. / oral gavage, plasma LC-MS); type: in vivo; conditions: female, rat; for Vd: read-out: Vdss
# Description: (§1) Method: SD rats from acceptable sources (N=3, female, 6-8 weeks, weighing 200-230 g, purchased from JH Laboratory Animal Co. LTD, SCXK (SH) 2017-0012 20170012001153) or beagles (N=3, not experimentally naive animals, female, weighing 6.55-8.62 kg, purchased from Beijing Marshall Biotech Co. Ltd., quality inspection number SCXK (BJ) 2016-0001 110318201100068072) were selected and administered, by intravenous injection or oral gavage (3 animals per route), corresponding doses of the test compound GEN1-117 or GEN1-284s (the sample for intravenous injection was dissolved in a solution of 10% DMSO, 10% Soltol HS15 and 80% PBS, and the sample for oral administration was dissolved in a 0.5% aqueous methylcellulose solution). Peripheral blood samples (150 μL) were taken (at 0, 0.083, 0.25, 0.5, 1, 2, 4, 8 and 24 h for the intravenous injection route; at 0, 0.25, 0.5, 1, 2, 4, 8 and 24 h for the oral injection route; into K2-EDTA anticoagulant tubes; centrifuged at 2000 g at 4 C for 5 min within 15 min), and plasma was separated and subjected to LC-MS analysis (LC-MS/MS-37, triple Quad 6500) using the conventional method with diclofenac as an internal standard. Mass spectrometry conditions: ESI cation, MRM detection:
# (§2) HPLC conditions: mobile phase A: 0.1% FA in water, mobile phase B: 0.1% FA in ACN
# (§3) Chromatography column: Waters ACQUITY UPLC HSS T3 (2.1×50 mm, 1.8 μm)
# (§4) A test sample standard curve was prepared from 1, 2, 10, 30, 100, 300, 1000, 2700 and 3000 ng/mL (50% ACN in water), and 3 μL of standard-curve solution was mixed with 57 μL of same-species blank plasma. A test plasma sample (60 μL) was well mixed with 6 μL of 10% FA in water, and 30 μL of the mixture was taken and well mixed with 200 μL of the internal standard compound diclofenac (40 ng/mL in ACN). After the resulting mixture was vortexed and shaken for 1 min and centrifuged at 5800 rpm for 10 min, 100 μL of the supernatant was transferred to a new test plate, and 1 μL of solution was loaded on an LC-MS/MS system.
# [2] = PK profile in beagles (i.v. / oral gavage, plasma LC-MS); type: in vivo; conditions: female, beagle, dog, analyte = labelled compound
# Description: as §1, §2, §3, §4
# [3] = system: STAT5 Y694 phosphorylation; assay: HTRF experiment: STAT5 Y694 phosphorylation in Hela cells; type: cell-based, Human; conditions: for Inhibition rate @10 μM: 10 μM compound, 2 h pretreatment, interferon stimulation 30 min
# Protocol: A multifunctional microplate reader (TECAN; […] F PLEX); 96-well cell culture plates (Bioyong), HTRF 384-well low volume plates (Cisbio; Cat #66PL384025); Human interferon 0 (IFN-0) (GenScript; Cat #P01574), STAT5 phospho-Y694 kits (Cisbio; Cat #64AT5PEG).
# Hela cells (American Type Culture Collection (ATCC), CCL-2) were cultured in a 96-well plate with DMEM containing 5% fetal bovine serum at a density of 3×10^4 cells/well. The cells were incubated overnight in a 37° C., 5% carbon dioxide humidified incubator. The next day, the original DMEM in the 96-well plate was blotted, and equal volumes of medium containing different concentrations of compounds (stock solutions of compounds prepared with dimethyl sulfoxide were diluted to desired concentrations in medium) were added for 2 h of pretreatment. The plate was left to stand in a 37° C. incubator. Human interferon 0 was then added to a final concentration of 10 nM for stimulation. The plate was gently shaken so the contents were well mixed, and the plate was then left to stand in a 37° C. incubator for 30 min.
# The medium was removed, and the plate was washed once with an appropriate volume of PBS and then blotted dry. Then 1×lysis buffer was added at 40 μL/well, and the plate was left to stand at room temperature for 30 min (preparation of 1 mL of 1× lysis buffer: mixing well 740 μL of ddH2O with 250 μL of 4× lysis buffer and […]). After 30 min, the cells were repeatedly pipetted until the lysis buffer was not viscous (bubbles were avoided) so that sufficient lysis was achieved.
# In an HTRF 384-well low volume plate, 4 μL of an antibody premix (containing two antibodies: Cryptate and d2: the two antibodies were each 20-fold diluted with detection buffer and were then mixed in equal volume to form the antibody premix) and 16 μL of the cell lysate were added to each well. The plate was sealed with a sealing membrane and then incubated overnight at room temperature in a dark place.
# After the overnight incubation, signals at 665 nm and 620 nm were detected separately on a multifunctional microplate reader. The calculation formula for the STAT5 Y694 phosphorylation assay is: Ratio=[(signal 665 nm)/(signal 620 nm)]×10^4. A dimethyl sulfoxide-only treatment group was set as a negative control (RatioNegative), and an interferon 0 stimulation group without compound addition was set as a positive control (RatioPositive). The inhibition rates of different samples against STAT5 Y694 phosphorylation were normalized: inhibition rate=[1−(RatioExperiment−RatioNegative)/(RatioPositive−RatioNegative)]×100.
# [4] = iv, 1 mg/kg, GEN1-117 dosed i.v. 1 mg/kg
# [5] = iv, 1 mg/kg, GEN1-284s dosed i.v. 1 mg/kg, analyte = labelled compound
# [6] = iv, GEN1-117 dosed i.v. 1 mg/kg
# [7] = po, 10 mg/kg, GEN1-117 dosed p.o. 10 mg/kg
# [8] = po, 10 mg/kg, GEN1-284s dosed p.o. 10 mg/kg, analyte = labelled compound
# [9] = po, GEN1-284s dosed p.o. 10 mg/kg, analyte = labelled compound
# [10] = iv, GEN1-284s dosed i.v. 0.5 mg/kg
# [11] = po, GEN1-284s dosed p.o. 5 mg/kg
# [12] = iv, GEN1-284s dosed i.v. 1 mg/kg, analyte = labelled compound
compound,measurement,setting,value
"O=C(Cc1ccc2ncccc2c1)N1CCC(n2c(=O)[nH]c3cccc(C(F)(F)F)c32)CC1 [GEN1-117, 1-(1-(2-(Quinolin-6-yl)acetyl)piperidin-4-yl)-7-(trifluoromethyl)-1H-benzo[d]imidazol-2(3H)-one]",AUC(0-t),[1]; [4],1640 ng·h/mL
same,half-life,[1]; [4],4.2 h
same,AUC(0-t),[1]; [5],1510 ng·h/mL
same,half-life,[1]; [5],4.16 h
same,clearance,[1]; [6],10.3 mL/min/kg
same,Vd,[1]; [6],2.75 L/kg
same,bioavailability,"[1]; oral, GEN1-117 dosed p.o. 10 mg/kg vs i.v. 1 mg/kg",2.6%
same,AUC(0-t),[1]; [7],423 ng·h/mL
same,Cmax,[1]; [7],42.8 ng/mL
same,Tmax,[1]; [7],4 h
same,half-life,[1]; [7],4.28 h
same,AUC(0-t),[1]; [8],14600 ng·h/mL
same,Cmax,[1]; [8],2440 ng/mL
same,Tmax,[1]; [8],2 h
same,half-life,[1]; [8],3.82 h
same,bioavailability,[1]; [9],96.3%
same,AUC(0-t),[2]; [10],2000 ng·h/mL
same,half-life,[2]; [10],4.06 h
same,AUC(0-t),[2]; [11],17900 ng·h/mL
same,Cmax,[2]; [11],2770 ng/mL
same,Tmax,[2]; [11],1.33 h
same,bioavailability,[2]; [11],89.8%
same,half-life,[2]; [11],4.18 h
same,Inhibition rate @10 μM,[3],89.31%
"O=C(Cc1ccc2ncccc2c1)N1CCC(n2c(=O)n(COP(=O)([O-])[O-])c3cccc(C(F)(F)F)c32)CC1.[Na+].[Na+] [GEN1-284 salt, (2-Oxo-3-(1-(2-(quinolin-6-yl)acetyl)piperidin-4-yl)-4-(trifluoromethyl)-2,3-dihydro-1H-benzo[d]imidazol-1-yl)methyl disodium phosphate]",AUC(0-t),[1]; [12],2750 ng·h/mL
same,clearance,[1]; [12],6.23 mL/min/kg
same,half-life,[1]; [12],0.39 h
same,Vd,[1]; [12],0.047 L/kg
same,Tmax,[1]; [8],0.42 h
same,AUC(0-t),[1]; [9],5.72 ng·h/mL
same,Cmax,[1]; [9],6.04 ng/mL
same,half-life,[1]; [9],0.95 h
same,AUC(0-t),[2]; [10],207 ng·h/mL
same,clearance,[2]; [10],43.5 mL/min/kg
same,half-life,[2]; [10],0.085 h
same,Vd,"[2]; iv, GEN1-284s dosed i.v. 0.5 mg/kg, read-out: Vdss",0.155 L/kg
same,IC50,[3],2.6 µM
same,Inhibition rate @10 μM,[3],82.46%
